Data on 2 compounds can be found in patent US9302999B2, “Substituted triazoles as herbicides” (E. I. DU PONT DE NEMOURS AND COMPANY, priority 2012, dated 2016).

Type in all cases: in vivo
The test system of experiment [1] is smartweed (ladysthumb smartweed, Polygonum persicaria). The experiment is described as follows: Test F pre-/postemergence: smartweed. An excerpt:
Seeds of plant species selected from corn (Zea mays), soybean (Glycine max), velvetleaf (Abutilon theophrasti), lambsquarters (Chenopodium album), poinsettia, wild (wild poinsettia, Euphorbia heterophylla), pigweed, palmer (palmer pigweed, Amaranthus palmeri), waterhemp (common waterhemp, Amaranthus rudis), surinam grass (Brachiaria decumbens), crabgrass, Brazil (Brazilian crabgrass, Digitaria horizontalis), panicum, fall (fall panicum Panicum dichotomiflorum), crabgrass, large (large crabgrass, Digitaria sanguinalis), foxtail, giant (giant foxtail, Setaria faberii), foxtail, green (green foxtail Setaria viridis), goosegrass (Eleusine indica), ragweed (common ragweed, Ambrosia elatior), barnyardgrass (Echinochloa crus-galli), sandbur (southern sandbur, Cenchrus echinatus), arrowleaf sida (Sida rhombifolia), ryegrass, Italian (Italian ryegrass, Lolium multiflorum), dayflower, VA (Virginia (VA) dayflower, Commelina virginica), field bindweed (Convolvulus arvensis), cocklebur (common cocklebur, Xanthium strumarium), morningglory (Ipomoea coccinea), nightshade (eastern black nightshade, Solanum ptycanthum), kochia (Kochia scoparia), nutsedge, yellow (yellow nutsedge, Cyperus esculentus), johnsongrass (Sorghum halepense), smartweed (ladysthumb smartweed, Polygonum persicaria), and beggarticks (hairy beggarticks, Bidens pilosa), were planted into a silt loam soil and treated preemergence with test chemicals formulated in a non-phytotoxic solvent mixture which included a surfactant. At the same time, plants selected from these crop and weed species and also pigweed (Amaranthus retroflexus), waterhemp_RES1 (ALS/Triazine resistant common waterhemp, Amaranthus rudis) and waterhemp_RES2 (ALS/HPPD resistant common waterhemp, Amaranthus rudis) were planted in pots containing a planting medium comprising spaghnum peat moss, vermiculite, wetting agent and starter nutrients treated with postemergence applications of some of the test chemicals formulated in the same manner. Plants ranged in height from 2 to 18 cm for postemergence treatments (1- to 4-leaf stage).
Treated plants and controls were maintained in a greenhouse for 14 to 21 days, after which time all species were compared to controls and visually evaluated. Plant response ratings, summarized in Table E, are based on a scale of 0 to 100 where 0 is no effect and 100 is complete control. A dash (-) response means no test result.

The test system of experiment [2] is canarygrass (PHAMI, Phalaris minor). Description: Test H post-emergence, alone and in combination: canarygrass. An excerpt:
(§1) Seeds of plant species selected from wheat (TRZAW, Triticum aestivum), barley (HORBW, Hordeum vulgare), Kochia (KCHSC, Kochia caoparia) blackgrass (ALOMY, Alopecurus myosuroides), canarygrass (PHAMI, Phalaris minor), Italian ryegrass (LOLMU, Lolium multiflorum) common lambsquarter (CHEAL, Chenopodium album), pigweed (AMARE, Amaranthus retroflexus), Common Chickweed (STEME, Stellaria media), Russian thistle (SASKR, Salsola iberica), Wild Buckwheat (POLCO, Polygonum convolvulus), Catchweed Bedstraw (GALAP, Galium aparine), Mustard (SINAR, Sinapisar arvensis), Henbit Deadnettle (LAMAM, Lamium amplexicaule), Wild Radish (RAPRA, Raphanus raphanistrum), Field Poppy (PAPRH, Papaver rhoeas), Field Violet (VIOAR, Viola arvennsis), Scentless Chamomile (MATIN Matricaria inodora) were planted into soil and treated post-emergence with test chemicals formulated in a non-phytotoxic solvent mixture. Plants were grown in a greenhouse using supplemental lighting to maintain a photoperiod of approximately 14 hours; daytime and nighttime temperatures were approximately 23°-29° and 16°-19° Celsius, respectively. Balanced fertilizer was applied through the watering system. Treated plants and controls were maintained in a greenhouse for 20 days, after which time all species were compared to controls and visually evaluated. Plant response ratings were calculated as the mean of three replicates (unless otherwise indicated), are summarized in Table G, and are based on a scale of 0 to 100 where 0 is no effect and 100 is complete control. A dash (-) response means no test result.

Experiment [3] has as its system barley (HORBW, Hordeum vulgare). Description: Test H post-emergence, alone and in combination: barley.
Text: as §1

The test system of experiment [4] is Kochia (KCHSC, Kochia caoparia). Description: Test H post-emergence, alone and in combination: Kochia.
Text: as §1

Experiment [5] concerns wheat (TRZAW, Triticum aestivum). Description: Test H post-emergence, alone and in combination: wheat.
Text: as §1

In experiment [6] the test system is Wild Buckwheat (POLCO, Polygonum convolvulus). Description: Test H post-emergence, alone and in combination: Wild Buckwheat.
Text: as §1

The test system of experiment [7] is Common Chickweed (STEME, Stellaria media). Description: Test H post-emergence, alone and in combination: Common Chickweed.
Text: as §1

Regarding `Cc1nn(-c2ccc(C(F)(F)F)c(F)c2)nc1Cc1ccnc(C(F)(F)F)c1` [Compound 162], the “Plant response rating, Smartweed” value worked out at 10 in experiment [1] (Postemergence, 4 g ai/ha, scale 0 to 100); 10 in experiment [1] (Postemergence, 8 g ai/ha, scale 0 to 100); 10 in experiment [1] (Postemergence, 16 g ai/ha, scale 0 to 100); 15 in experiment [1] (Postemergence, 31 g ai/ha, scale 0 to 100); 15 in experiment [1] (Postemergence, 62 g ai/ha, scale 0 to 100); 0 in experiment [1] (Preemergence, 4 g ai/ha, scale 0 to 100, 0 no effect, 100 complete control). The “Plant response rating, Smartweed” value in experiment [1] (Preemergence, 8 g ai/ha, scale 0 to 100, 0 no effect, 100 complete control) was 0; in experiment [1] (Preemergence, 16 g ai/ha, scale 0 to 100 (0 no effect, 100 complete control)) it was 0; in experiment [1] (Preemergence, 31 g ai/ha, scale 0 to 100 (0 no effect, 100 complete control)), 0.
As for `Cc1nn(-c2ccc(F)cc2)nc1Oc1ccnc(C(F)(F)F)c1` [Compound 129, 4-[[2-(4-fluorophenyl)-5-methyl-2H-1,2,3-triazol-4-yl]oxy]-2-(trifluoromethyl)pyridine], the PHAMI plant response in experiment [2] (Rate 31) stood at 15; in experiment [2] (Rate 62), 20; in experiment [2] (Rate 125), 60. For the same compound, the HORBW plant response in experiment [3] (Rate 31) is reported as 10; in experiment [3] (Rate 62) it was 15; in experiment [3] (Rate 125), 15. Further, the KCHSC plant response was determined as 80 in experiment [4] (Rate 31), 85 in experiment [4] (Rate 62) and 95 in experiment [4] (Rate 125). Also, the TRZAW plant response in experiment [5] (Rate 31) was found to be 10; in experiment [5] (Rate 62), 15; in experiment [5] (Rate 125) it was 15. The POLCO plant response in experiment [6] (Rate 31) was 30; in experiment [6] (Rate 62), 25; in experiment [6] (Rate 125), 70. Moreover, the STEME plant response in experiment [7] (Rate 31) amounted to 50; in experiment [7] (Rate 62), 70; in experiment [7] (Rate 125) it was 80.
